Laboratory results from patent US6984649B1, “Pyridine derivatives” (Bayer Aktiengesellschaft, priority 2000, dated 2006).
Where a name gives a salt, the structure may show the parent alone.

Biological target: T1, human IKK-β (Homo sapiens, UniProt O14920)
T1 construct: A cDNA fragment encoding human IKK-β open reading frame was generated by PCR; His tag (from pcDNA3.1/His C); made in house; host or cells: Sf21 insect cells (baculovirus); substrate made in E. coli
T1 sequence (O14920 1-756): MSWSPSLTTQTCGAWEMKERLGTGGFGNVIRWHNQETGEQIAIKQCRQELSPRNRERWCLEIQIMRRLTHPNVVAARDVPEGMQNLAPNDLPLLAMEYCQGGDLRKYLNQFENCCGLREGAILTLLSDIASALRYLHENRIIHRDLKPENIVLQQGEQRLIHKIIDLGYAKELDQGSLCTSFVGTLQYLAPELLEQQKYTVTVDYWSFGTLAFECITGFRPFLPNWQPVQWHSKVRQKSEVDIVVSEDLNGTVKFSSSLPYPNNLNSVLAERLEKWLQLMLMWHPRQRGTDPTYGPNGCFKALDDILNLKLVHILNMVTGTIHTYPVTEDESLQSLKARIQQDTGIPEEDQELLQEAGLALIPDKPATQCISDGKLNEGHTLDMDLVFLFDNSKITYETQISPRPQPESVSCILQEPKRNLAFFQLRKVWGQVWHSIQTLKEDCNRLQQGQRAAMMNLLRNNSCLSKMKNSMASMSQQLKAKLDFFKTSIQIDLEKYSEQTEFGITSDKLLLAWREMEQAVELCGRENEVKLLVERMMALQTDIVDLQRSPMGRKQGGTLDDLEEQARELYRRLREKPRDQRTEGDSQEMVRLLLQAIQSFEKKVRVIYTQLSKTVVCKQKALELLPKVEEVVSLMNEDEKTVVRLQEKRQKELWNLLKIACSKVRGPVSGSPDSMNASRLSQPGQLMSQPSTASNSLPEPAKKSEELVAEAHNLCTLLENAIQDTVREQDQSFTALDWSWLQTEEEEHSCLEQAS
Test: IKK-β kinase inhibitory assay
Assay type: biochemical
Conditions: compounds as yielded by solid phase synthesis, purity about 40 to 90%, read-out: In vitro activity grade (In vitro IC50)
Procedure, shortened: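 His-tagged human IKK-β from baculovirus-infected Sf21 cells (0.6 μg/ml final) phosphorylates biotinylated GST-IκBα(1-54) (0.2 μM) in Tris-HCl pH 7.6 buffer with MgCl2. ATP with [γ-33P]ATP added, then 2 h at room temperature. Biotinylated substrate captured on streptavidin plates; bound radioactivity counted by scintillation.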

Row | Compound | IC50
1 | O=C1Nc2nc(-c3c(O)cccc3OCC3CC3)cc(C3CCCNC3)c2CN1C(=O)NC1CCCCC1 (stereo not drawn) [Example 24-3, N-cyclohexyl-7-[2-(cyclopropylmethoxy)-6-hydroxyphenyl]-2-oxo-5-(3-piperidinyl)-1,4-dihydropyrido[2,3-d]pyrimidine-3(2H)-carboxamide hydrochloride] | < 0.5 µM
2 | CS(=O)(=O)N1Cc2c(C3CCCNC3)cc(-c3c(O)cccc3OCC3CC3)nc2NC1=O (stereo not drawn) [Example 24-4, 7-[2-(cyclopropylmethoxy)-6-hydroxyphenyl]-3-(methylsulfonyl)-5-(3-piperidinyl)-3,4-dihydropyrido[2,3-d]pyrimidin-2(1H)-one hydrochloride] | < 0.5 µM
3 | CCOC(=O)c1cc2c(C3CCCNC3)cc(-c3ccccc3O)nc2[nH]c1=O (stereo not drawn) [Example 25-1, ethyl 7-(2-hydroxyphenyl)-2-oxo-5-(3-piperidinyl)-1,2-dihydro-1,8-naphthyridine-3-carboxylate hydrochloride] | < 0.5 µM
4 | O=c1[nH]c2nc(-c3c(O)cccc3OCC3CC3)cc(C3CCCNC3)c2cc1F (stereo not drawn) [Example 25-2, 7-[2-(cyclopropylmethoxy)-6-hydroxyphenyl]-3-fluoro-5-(3-piperidinyl)-1,8-naphthyridin-2(1H)-one hydrochloride] | < 0.5 µM
5 | NC(=O)c1cc2c(C3CCNCC3)cc(-c3c(O)cccc3OCC3CC3)nc2[nH]c1=O [Example 25-3, 7-[2-(cyclopropylmethoxy)-6-hydroxyphenyl]-2-oxo-5-(4-piperidinyl)-1,2-dihydro-1,8-naphthyridine-3-carboxamide hydrochloride] | < 0.5 µM
6 | O=c1ccc2c(C3CCCNC3)cc(-c3c(O)cccc3OCC3CC3)nc2[nH]1 (stereo not drawn) [Example 25-4, 7-[2-(cyclopropylmethoxy)-6-hydroxyphenyl]-5-(3-piperidinyl)-1,8-naphthyridin-2(1H)-one hydrochloride] | < 0.5 µM
7 | CCOC(=O)C1Cc2c(C3CCCNC3)cc(-c3ccccc3O)nc2NC1=O (stereo not drawn) [Example 26-1, ethyl 7-(2-hydroxyphenyl)-2-oxo-5-(3-piperidinyl)-1,2,3,4-tetrahydro-1,8-naphthyridine-3-carboxylate] | < 0.5 µM
8 | NC(=O)C1Cc2c(C3CCNCC3)cc(-c3c(O)cccc3OCC3CC3)nc2NC1=O (stereo not drawn) [Example 26-2, 7-[2-(cyclopropylmethoxy)-6-hydroxyphenyl]-2-oxo-5-(4-piperidinyl)-1,2,3,4-tetrahydro-1,8-naphthyridine-3-carboxamide hydrochloride] | < 0.5 µM
9 | O=C1CCc2c(C3CCCNC3)cc(-c3ccccc3O)nc2N1 (stereo not drawn) [Example 27-1, 7-(2-hydroxyphenyl)-5-(3-piperidinyl)-3,4-dihydro-1,8-naphthyridin-2(1H)-one hydrochloride] | < 0.5 µM
